Laboratory results published in PMC11741150, “Synthesis and In Vitro Antileishmanial Efficacy of Novel Ethylene Glycol Analogues of Benzothiadiazine‐1,1‐dioxide” (Chemistry & Biodiversity, 2024).
Entries after “also recorded” stand apart in the source; their conditions may differ. Where two headings read alike, the source gives them in different places.

What was measured:
Vero cells = assay: Cytotoxicity resazurin assay; assay type: cell-based; conditions: Chlorocebus sabaeus, 48 hours, ±standard deviation, maximum concentration 2 mM
Description: The cytotoxicity of the synthesised compounds was evaluated using the resazurin assay. The assay involves live cells converting oxidized blue resazurin dye to pink, highly fluorescent resorufin through irreversible enzymatic reduction.[44] This non‐toxic reagent is a useful instrument for determining drug toxicity and cell growth.
Dulbecco's modified Eagle's medium (DMEM) with high glucose (Separations) supplemented with 1 % L‐glutamine, non‐essential amino acids, and penicillin‐streptomycin (Sigma Aldrich), and 10 % fetal bovine serum (Thermofisher Scientific) was used to cultivate Vero cells. The cells were kept at 37 °C and 5 % CO2 in a humidified environment. For the assay, 96 well plates were prepared by pipetting 100 μL of cell suspension (60 000 cells/mL) per well and incubating the plates for 24 hours. The cells were then treated with seven two‐fold concentration dilutions of: (1) 1 μM emetine dihydrochloride (Sigma Aldrich) solution (positive control); (2) 2 mM experimental compound solutions. Cell‐free growth medium was included as a blank. The treated plates were incubated for 48 hours.
To initiate the resazurin assay, 50 μL of sterile‐filtered resazurin sodium salt (Sigma Aldrich) solution (0.01 % in phosphate‐buffered saline (PBS)) was added to the prepared plates and then incubated for 2 hours. A Thermofisher Scientific's GO Multiscan plate reader was used to measure the absorbance at 570 and 600 nm. SkanIt 4.0 Research Edition software was used to perform the data analysis for every biological replicate. After subtracting background absorbance (600 nm) from the 570 nm absorbance data, the mean absorbance was computed, and the percentage of viable cells was estimated using the formula below: Cellviability%=(ΔAbssample-ΔAbsblank)/(ΔAbsnegcontrol-ΔAbsblank)X100
GraphPad Prism 5 was used to calculate the IC50 and Z‐score for each compound's biological replicate. The mean IC50 of the biological replicates and standard deviation (SD) was calculated to determine the final IC50 of each compound.

[1] = test system: Leishmania donovani (strain 9515 (MHOM/IN/95/9515)) promastigotes; assay: Antipromastigote resazurin assay; assay type: cell-based; conditions: for IC50: promastigotes, maximum concentration 2 mM, ±standard deviation, read-out: L. donovani 9515 antipromastigote IC50; for inhibition at 10 µM: L. donovani strain 9515 promastigotes, read-out: Antipromastigote growth inhibition (%)
Description: The antipromastigote activity of synthesised compounds was evaluated using a modified method of the resazurin assay[45, 46] against two Leishmania strains.
Leishmania donovani (strain 9515 (MHOM/IN/95/9515)) and L. major (strain NIH S (MHOM/SN/74/Seidman)) promastigotes were cultured in M199 with Hank's salts and 0.68 mM L‐glutamine (Sigma Aldrich) supplemented with 0.0005 % hemin, 0.0001 % biotin, 0.1 mM adenine (Sigma Aldrich), 10 % fetal bovine serum, 50 U/mL Penicillin/Streptomycin solution, 4.2 mM sodium bicarbonate and 25 mM Hepes buffer. The promastigotes were maintained at an adjusted pH of 7.3–7.4 growth medium at 26 °C. […] Amphothericin B (10 μM) served as the standard antileishmanial drug and parasite‐free growth medium was included as the blank. The plates were incubated for 48 hours at 26 °C in humidified environment.
Following the initial incubation, 50 μL of resazurin solution (0.01 % in PBS) was added to each well and the plates underwent further incubation at 26 °C for 24 hours in the dark. A Thermofisher Scientific's GO Multiscan plate reader was used to measure absorbance at 570 nm and 600 nm. SkanIt 4.0 Research Edition software was used to perform the data analysis for every biological replicate. Background absorbance (600 nm) was subtracted from the 570 nm absorbance data and the mean absorbance was computed. The cell viability and data analysis were performed as indicated in the cytotoxicity assay.

[2] = test system: L. major (strain NIH S (MHOM/SN/74/Seidman)) promastigotes; assay: Antipromastigote resazurin assay; assay type: cell-based, Leishmania major; conditions: for IC50: promastigotes, maximum concentration 2 mM, ±standard deviation; for inhibition at 10 µM: L. major strain IR‐173 (as headed) promastigotes, read-out: Antipromastigote growth inhibition (%)
[3] = test system: L. donovani strain 9515 intramacrophage amastigotes; assay: Intramacrophage antileishmanial growth inhibition assay; assay type: cell-based; conditions: Leishmania donovani, read-out: Anti‐amastigote growth inhibition (%)
Description: (§1) A modified resazurin assay[47, 48] and the two Leishmania strains were also used to assess the efficacy of synthesised compounds against intramacrophage parasites.
(§2) Human monocytic leukemia (THP‐1) cells were cultured in RPMI 1640 medium with L‐glutamine (Sigma Aldrich) supplemented with, 1 % penicillin/streptomycin solution (Lonza), 10 % fetal bovine serum (FBS; Thermofisher Scientific) and 2 g/L sodium bicarbonate (Sigma Aldrich). The cells were maintained in a humidified environment at 37 °C and 5 % CO2.
(§3) For the intramacrophage assay, a 500 000 cells/mL THP‐1 cell suspension was prepared, 25 ng/mL phorbol 12‐myristate 13‐acetate (PMA) added and the suspension seeded in 96 well plates (Nunc, Thermofisher Scientific) at 200 μL/well. Cell‐free growth medium was included as the blank. The plates were incubated for 48 hours in a humidified environment at 37 °C and 5 % CO2 to encourage the differentiation of the suspended cells to adherent macrophages.
(§4) To eliminate non‐adherent cells after the PMA treatment, the plates were carefully washed once with warm PBS. Then, a premade promastigote suspension ([…]) was added. The suspension consisted of stationary phase promastigotes in THP‐1 cell growth medium, with a multiplicity of infection (MOI) of 30 : 1. Parasite‐free medium was also added to selected THP‐1 cell‐containing wells to serve as parasite blank. The plates were thoroughly rinsed four times with warm PBS to get rid of extracellular parasites after being cultured for 24 hours to encourage macrophage infection. The cells were then treated with 160 μL of growth medium and 40 μL of either solvent (parasite blank and negative control with parasites) or 40 μL of compound solutions. For a dual‐point activity screening, 10 μM and 2 mM of compound were prepared in separate plates. Amphothericin B (10 μM) served as the standard antileishmanial drug. The plates were incubated for 72 hours in a humidified environment at 37 °C and 5 % CO2.
(§5) For the plates treated with 10 μM of compound, any serum and extracellular promastigotes that remained were carefully removed from the wells by rinsing with warm PBS. The wells were then treated with 20 μL of 0.05 % sodium dodecyl sulphate (SDS; Sigma Aldrich) in PBS for 30 sec to lyse the macrophages. Lysis was terminated with the addition of 180 μL promastigote growth medium with 10 % FBS. For the resazurin assay, 10 μL of resazurin solution (0.025 % in PBS) was added to each well and the plates were further incubated at 37 °C in for 72 hours in the dark to measure amastigote recovery to proliferative promastigotes.
(§6) A Thermofisher Scientific's GO Multiscan plate reader was used to measure absorbance at 570 nm and 600 nm. SkanIt 4.0 Research Edition software was used to perform the data analysis for every biological replicate. Background absorbance (600 nm) was subtracted from the 570 nm absorbance data and the mean absorbance was computed.
(§7) For the activity screening, the following formula was used to determine growth inhibition percentage: Growthinhibition%=100-[(ΔAbssample-ΔAbsblank)/(ΔAbsnegcontrol-ΔAbsblank)X100]

[4] = test system: L. major intramacrophage amastigotes; assay: as above; assay type: cell-based, Leishmania major; conditions: for host cell and parasite death in L. major anti‐amastigote screening: 2 mM of compound, L. major only; for inhibition at 10 µM: Leishmania major, L. major strain IR‐173 (as headed) intramacrophage amastigotes, read-out: Anti‐amastigote growth inhibition (%)
Description: as §1, §2, §3, §4, §5
Any remaining extracellular promastigotes were afterwards carefully removed from the wells by rinsing with warm PBS. The wells were then treated with 50 μL of resazurin solution (0.01 % in PBS) and the plates were further incubated at 37 °C for 4 hours in the dark to assess host cell viability.
as §6, §7

Row | SMILES | IC50 ([1]; Leishmania donovani) [µM] | IC50 ([2]; Leishmania major) [µM] | IC50 [1] [µM] | IC50 [2] [µM] | IC50 (Vero cells) [µM] | inhibition at 10 µM ([1]; Leishmania donovani) [%] | SI2: Selectivity index=IC50 Vero/L. major antipromastigote IC50 [2] | inhibition at 10 µM ([2]; Leishmania major) [%] | inhibition at 10 µM [3] [%] | host cell and parasite death in L. major anti‐amastigote screening [4] | inhibition at 10 µM [4] [%] | SI1: Selectivity index=IC50 Vero/L. donovani 9515 antipromastigote IC50 [1]
1 | CCOCCOCCOCCN1C=Nc2ccccc2S1(=O)=O [Compound 8, 2‐{2‐[2‐(2‐Ethoxyethoxy)ethoxy]ethyl}‐2H‐benzo[e][1,2,4]thiadiazine‐1,1‐dioxide] | 809 ± 20.2 | 909 ± 124 |  |  | 922 ± 93.9 | 3 |  | 0 | 0 |  | 0 | 
2 | O=[N+]([O-])c1ccc(OCCN2C=Nc3ccccc3S2(=O)=O)cc1 [Compound 12, 2‐[2‐(4‐Nitrophenoxy)ethyl]‐2H‐benzo[e][1,2,4]thiadiazine‐1,1‐dioxide] | 411 ± 27.9 | 783 ± 408 |  |  | 667 ± 58 | 9 | 0.85 | 0 | 0 | killed both parasite and host cell | 0 | 1.62
3 | CCOCCOCCN1C=Nc2ccccc2S1(=O)=O [Compound 7, 2‐[2‐(2‐Ethoxyethoxy)ethyl]‐2H‐benzo[e][1,2,4]thiadiazine‐1,1‐dioxide] | 426 ± 34.7 | 491 ± 28.6 |  |  | 727 ± 61.7 | 0 | 1.48 | 0 | 0 | both host cell and parasite death; also recorded: killed both parasite and host cell | 0 | 1.71
4 | COCCOCCOCCN1C=Nc2ccccc2S1(=O)=O [Compound 5, 2‐{2‐[2‐(2‐Methoxyethoxy)ethoxy]ethyl}‐2H‐benzo[e][1,2,4]thiadiazine‐1,1‐dioxide] | 830 ± 10.5 |  |  |  | 999 ± 16.8 | 5 | 0.89 | 0 | 0 | both host cell and parasite death | 0 | 1.20
5 | C[C@@H]1[C@H](O)[C@@H](C)/C=C/C=C/C=C/C=C/C=C/C=C/C=C/[C@H](O[C@@H]2O[C@H](C)[C@@H](O)[C@H](N)[C@@H]2O)C[C@@H]2O[C@](O)(C[C@@H](O)C[C@@H](O)[C@H](O)CC[C@@H](O)C[C@@H](O)CC(=O)O[C@H]1C)C[C@H](O)[C@H]2C(=O)O [AmB, Amphotericin B, reference compound] | 0.02 |  |  |  | 57.8 ± 3.22 | 100 |  | 100 | 100 |  | 100 | 
6 | C#CCN1C=Nc2ccccc2S1(=O)=O [Compound 14, 2‐(Prop‐2‐yn‐1‐yl)‐2H‐benzo[e][1,2,4]thiadiazine‐1,1‐dioxide] | 238 ± 14.5 | 185 ± 22.1 |  |  | 535 ± 21.8 | 1 | 2.89 | 23 | 0 | killed both parasite and host cell | 0 | 2.25
7 | CC[C@H]1CN2CCc3cc(OC)c(OC)cc3[C@@H]2C[C@@H]1C[C@H]1NCCc2cc(OC)c(OC)cc21 [Em, emetine, reference compound] |  |  |  |  | 0.08 ± 0.01 |  |  |  |  |  |  | 

The remaining molecules from weak to strong by IC50 ([1]; Leishmania donovani), led by results:

Row | IC50 ([1]; Leishmania donovani) [µM] | IC50 ([2]; Leishmania major) [µM] | IC50 [1] [µM] | IC50 [2] [µM] | SMILES | IC50 (Vero cells) [µM] | inhibition at 10 µM ([1]; Leishmania donovani) [%] | SI2: Selectivity index=IC50 Vero/L. major antipromastigote IC50 [2] | inhibition at 10 µM ([2]; Leishmania major) [%] | inhibition at 10 µM [3] [%] | host cell and parasite death in L. major anti‐amastigote screening [4] | inhibition at 10 µM [4] [%] | SI1: Selectivity index=IC50 Vero/L. donovani 9515 antipromastigote IC50 [1]
8 | 360 ± 12.5 | 455 ± 9.55 |  |  | C=CCOCCN1C=Nc2ccccc2S1(=O)=O [Compound 13, 2‐[2‐(Allyloxy)ethyl]‐2H‐benzo[e][1,2,4]thiadiazine‐1,1‐dioxide] | 531 ± 15.7 | 15 | 1.17 | 0 | 0 | killed both parasite and host cell | 0 | 
9 | 290 ± 21.4 | 300 ± 3.68 |  |  | O=S1(=O)c2ccccc2N=CN1CCOc1ccc(Cl)cc1 [Compound 11, 2‐[2‐(4‐Chlorophenoxy)ethyl]‐2H‐benzo[e][1,2,4]thiadiazine‐1,1‐dioxide] | 747 ± 188 | 3 | 2.49 | 0 | 0 | killed both parasite and host cell | 0 | 2.57
10 | 153 | 103 | 153 ± 7.92 | 104 ± 4.53 | O=S1(=O)c2ccccc2N=CN1CCOc1ccccc1 [Compound 9, 2‐(2‐Phenoxyethyl)‐2H‐benzo[e][1,2,4]thiadiazine‐1,1‐dioxide] | 975.3 ± 3.68 | 7 | 9.41 | 58 | 0 | both host cell and parasite death; also recorded: killed both parasite and host cell | 0 | 6.36
